{"source": "patent US8222278B2", "about": "“Treatment of attention-deficit/hyperactivity disorder” (Abbott Laboratories, priority 2008, dated 2012)", "tested_on": "adults with ADHD", "test": "Study A: treatment-emergent adverse events (safety dataset)", "procedure": "During each visit, blood pressure, heart rate, weight, medication accountability and tolerability, and adverse effects were assessed.\nThe safety dataset consisted of all subjects who took at least one dose of study drug. The reasons for discontinuation and the treatment-emergent adverse events were summarized by the treatment under which the discontinuation or event was reported.\nTreatment-emergent adverse events were those that began or worsened following the first dose of study drug in Period 1. Adverse event monitoring was conducted at each study visit and until 30 days following discontinuation of study drug. Other routine safety assessments included vital signs, electrocardiograms, physical examinations, brief neurological examinations and laboratory tests.", "data": [{"compound": "Clc1cc(N2C[C@@H]3CN[C@@H]3C2)cnc1Cl", "note": "[ABT-894, 3-(5,6-Dichloro-pyridin-3-yl)-1S,5S-3,6-diazabicyclo[3.2.0]heptane]", "values": [{"measurement": "Any Adverse Event, % of subjects", "setting": "ABT-894 1 mg QD, N = 46", "value": "(69.6) %"}, {"measurement": "Any Adverse Event, number of subjects", "setting": "ABT-894 1 mg QD, N = 46", "value": 32, "unit": "subjects"}, {"measurement": "Decreased appetite, % of subjects", "setting": "ABT-894 1 mg QD, N = 46", "value": "(0) %"}, {"measurement": "Decreased appetite, number of subjects", "setting": "ABT-894 1 mg QD, N = 46", "value": 0, "unit": "subjects"}, {"measurement": "Diarrhea, % of subjects", "setting": "ABT-894 1 mg QD, N = 46", "value": "(0) %"}, {"measurement": "Diarrhea, number of subjects", "setting": "ABT-894 1 mg QD, N = 46", "value": 0, "unit": "subjects"}, {"measurement": "Dizziness, % of subjects", "setting": "ABT-894 1 mg QD, N = 46", "value": "(4.3) %"}, {"measurement": "Dizziness, number of subjects", "setting": "ABT-894 1 mg QD, N = 46", "value": 2, "unit": "subjects"}, {"measurement": "Dry mouth, % of subjects", "setting": "ABT-894 1 mg QD, N = 46", "value": "(4.3) %"}, {"measurement": "Dry mouth, number of subjects", "setting": "ABT-894 1 mg QD, N = 46", "value": 2, "unit": "subjects"}, {"measurement": "Fatigue, % of subjects", "setting": "ABT-894 1 mg QD, N = 46", "value": "(4.3) %"}, {"measurement": "Fatigue, number of subjects", "setting": "ABT-894 1 mg QD, N = 46", "value": 2, "unit": "subjects"}, {"measurement": "Feeling hot and cold, % of subjects", "setting": "ABT-894 1 mg QD, N = 46", "value": "(0) %"}, {"measurement": "Feeling hot and cold, number of subjects", "setting": "ABT-894 1 mg QD, N = 46", "value": 0, "unit": "subjects"}, {"measurement": "Feeling jittery, % of subjects", "setting": "ABT-894 1 mg QD, N = 46", "value": "(0) %"}, {"measurement": "Feeling jittery, number of subjects", "setting": "ABT-894 1 mg QD, N = 46", "value": 0, "unit": "subjects"}, {"measurement": "Headache, % of subjects", "setting": "ABT-894 1 mg QD, N = 46", "value": "(8.7) %"}, {"measurement": "Headache, number of subjects", "setting": "ABT-894 1 mg QD, N = 46", "value": 4, "unit": "subjects"}, {"measurement": "Lethargy, % of subjects", "setting": "ABT-894 1 mg QD, N = 46", "value": "(0) %"}, {"measurement": "Lethargy, number of subjects", "setting": "ABT-894 1 mg QD, N = 46", "value": 0, "unit": "subjects"}, {"measurement": "Muscle Strain, % of subjects", "setting": "ABT-894 1 mg QD, N = 46", "value": "(6.5) %"}, {"measurement": "Muscle Strain, number of subjects", "setting": "ABT-894 1 mg QD, N = 46", "value": 3, "unit": "subjects"}, {"measurement": "Nasal congestion, % of subjects", "setting": "ABT-894 1 mg QD, N = 46", "value": "(0) %"}, {"measurement": "Nasal congestion, number of subjects", "setting": "ABT-894 1 mg QD, N = 46", "value": 0, "unit": "subjects"}, {"measurement": "Nausea, % of subjects", "setting": "ABT-894 1 mg QD, N = 46", "value": "(4.3) %"}, {"measurement": "Nausea, number of subjects", "setting": "ABT-894 1 mg QD, N = 46", "value": 2, "unit": "subjects"}, {"measurement": "Parathesia, % of subjects", "setting": "ABT-894 1 mg QD, N = 46", "value": "(0) %"}, {"measurement": "Parathesia, number of subjects", "setting": "ABT-894 1 mg QD, N = 46", "value": 0, "unit": "subjects"}, {"measurement": "Sleep disturbances, % of subjects", "setting": "ABT-894 1 mg QD, N = 46", "value": "(4.3) %"}, {"measurement": "Sleep disturbances, number of subjects", "setting": "ABT-894 1 mg QD, N = 46", "value": 2, "unit": "subjects"}, {"measurement": "Somnolence, % of subjects", "setting": "ABT-894 1 mg QD, N = 46", "value": "(13.0) %"}, {"measurement": "Somnolence, number of subjects", "setting": "ABT-894 1 mg QD, N = 46", "value": 6, "unit": "subjects"}, {"measurement": "Upper RTI, % of subjects", "setting": "ABT-894 1 mg QD, N = 46", "value": "(2.2) %"}, {"measurement": "Upper RTI, number of subjects", "setting": "ABT-894 1 mg QD, N = 46", "value": 1, "unit": "subjects"}, {"measurement": "Vomiting, % of subjects", "setting": "ABT-894 1 mg QD, N = 46", "value": "(0) %"}, {"measurement": "Vomiting, number of subjects", "setting": "ABT-894 1 mg QD, N = 46", "value": 0, "unit": "subjects"}, {"measurement": "Any Adverse Event, % of subjects", "setting": "ABT-894 2 mg QD, N = 42", "value": "(61.9) %"}, {"measurement": "Any Adverse Event, number of subjects", "setting": "ABT-894 2 mg QD, N = 42", "value": 26, "unit": "subjects"}, {"measurement": "Decreased appetite, % of subjects", "setting": "ABT-894 2 mg QD, N = 42", "value": "(0) %"}, {"measurement": "Decreased appetite, number of subjects", "setting": "ABT-894 2 mg QD, N = 42", "value": 0, "unit": "subjects"}, {"measurement": "Diarrhea, % of subjects", "setting": "ABT-894 2 mg QD, N = 42", "value": "(4.8) %"}, {"measurement": "Diarrhea, number of subjects", "setting": "ABT-894 2 mg QD, N = 42", "value": 2, "unit": "subjects"}, {"measurement": "Dizziness, % of subjects", "setting": "ABT-894 2 mg QD, N = 42", "value": "(9.5) %"}, {"measurement": "Dizziness, number of subjects", "setting": "ABT-894 2 mg QD, N = 42", "value": 4, "unit": "subjects"}, {"measurement": "Dry mouth, % of subjects", "setting": "ABT-894 2 mg QD, N = 42", "value": "(0) %"}, {"measurement": "Dry mouth, number of subjects", "setting": "ABT-894 2 mg QD, N = 42", "value": 0, "unit": "subjects"}, {"measurement": "Fatigue, % of subjects", "setting": "ABT-894 2 mg QD, N = 42", "value": "(2.4) %"}, {"measurement": "Fatigue, number of subjects", "setting": "ABT-894 2 mg QD, N = 42", "value": 1, "unit": "subjects"}, {"measurement": "Feeling hot and cold, % of subjects", "setting": "ABT-894 2 mg QD, N = 42", "value": "(0) %"}, {"measurement": "Feeling hot and cold, number of subjects", "setting": "ABT-894 2 mg QD, N = 42", "value": 0, "unit": "subjects"}, {"measurement": "Feeling jittery, % of subjects", "setting": "ABT-894 2 mg QD, N = 42", "value": "(0) %"}, {"measurement": "Feeling jittery, number of subjects", "setting": "ABT-894 2 mg QD, N = 42", "value": 0, "unit": "subjects"}, {"measurement": "Headache, % of subjects", "setting": "ABT-894 2 mg QD, N = 42", "value": "(11.9) %"}, {"measurement": "Headache, number of subjects", "setting": "ABT-894 2 mg QD, N = 42", "value": 5, "unit": "subjects"}, {"measurement": "Lethargy, % of subjects", "setting": "ABT-894 2 mg QD, N = 42", "value": "(0) %"}, {"measurement": "Lethargy, number of subjects", "setting": "ABT-894 2 mg QD, N = 42", "value": 0, "unit": "subjects"}, {"measurement": "Muscle Strain, % of subjects", "setting": "ABT-894 2 mg QD, N = 42", "value": "(0) %"}, {"measurement": "Muscle Strain, number of subjects", "setting": "ABT-894 2 mg QD, N = 42", "value": 0, "unit": "subjects"}, {"measurement": "Nasal congestion, % of subjects", "setting": "ABT-894 2 mg QD, N = 42", "value": "(0) %"}, {"measurement": "Nasal congestion, number of subjects", "setting": "ABT-894 2 mg QD, N = 42", "value": 0, "unit": "subjects"}, {"measurement": "Nausea, % of subjects", "setting": "ABT-894 2 mg QD, N = 42", "value": "(14.3) %"}, {"measurement": "Nausea, number of subjects", "setting": "ABT-894 2 mg QD, N = 42", "value": 6, "unit": "subjects"}, {"measurement": "Parathesia, % of subjects", "setting": "ABT-894 2 mg QD, N = 42", "value": "(0) %"}, {"measurement": "Parathesia, number of subjects", "setting": "ABT-894 2 mg QD, N = 42", "value": 0, "unit": "subjects"}, {"measurement": "Sleep disturbances, % of subjects", "setting": "ABT-894 2 mg QD, N = 42", "value": "(14.3) %"}, {"measurement": "Sleep disturbances, number of subjects", "setting": "ABT-894 2 mg QD, N = 42", "value": 6, "unit": "subjects"}, {"measurement": "Somnolence, % of subjects", "setting": "ABT-894 2 mg QD, N = 42", "value": "(0) %"}, {"measurement": "Somnolence, number of subjects", "setting": "ABT-894 2 mg QD, N = 42", "value": 0, "unit": "subjects"}, {"measurement": "Upper RTI, % of subjects", "setting": "ABT-894 2 mg QD, N = 42", "value": "(7.1) %"}, {"measurement": "Upper RTI, number of subjects", "setting": "ABT-894 2 mg QD, N = 42", "value": 3, "unit": "subjects"}, {"measurement": "Vomiting, % of subjects", "setting": "ABT-894 2 mg QD, N = 42", "value": "(2.4) %"}, {"measurement": "Vomiting, number of subjects", "setting": "ABT-894 2 mg QD, N = 42", "value": 1, "unit": "subjects"}, {"measurement": "Any Adverse Event, % of subjects", "setting": "ABT-894 4 mg BID, N = 46", "value": "(54.3) %"}, {"measurement": "Any Adverse Event, number of subjects", "setting": "ABT-894 4 mg BID, N = 46", "value": 25, "unit": "subjects"}, {"measurement": "Decreased appetite, % of subjects", "setting": "ABT-894 4 mg BID, N = 46", "value": "(0) %"}, {"measurement": "Decreased appetite, number of subjects", "setting": "ABT-894 4 mg BID, N = 46", "value": 0, "unit": "subjects"}, {"measurement": "Diarrhea, % of subjects", "setting": "ABT-894 4 mg BID, N = 46", "value": "(2.2) %"}, {"measurement": "Diarrhea, number of subjects", "setting": "ABT-894 4 mg BID, N = 46", "value": 1, "unit": "subjects"}, {"measurement": "Dizziness, % of subjects", "setting": "ABT-894 4 mg BID, N = 46", "value": "(2.2) %"}, {"measurement": "Dizziness, number of subjects", "setting": "ABT-894 4 mg BID, N = 46", "value": 1, "unit": "subjects"}, {"measurement": "Dry mouth, % of subjects", "setting": "ABT-894 4 mg BID, N = 46", "value": "(2.2) %"}, {"measurement": "Dry mouth, number of subjects", "setting": "ABT-894 4 mg BID, N = 46", "value": 1, "unit": "subjects"}, {"measurement": "Fatigue, % of subjects", "setting": "ABT-894 4 mg BID, N = 46", "value": "(8.7) %"}, {"measurement": "Fatigue, number of subjects", "setting": "ABT-894 4 mg BID, N = 46", "value": 4, "unit": "subjects"}, {"measurement": "Feeling hot and cold, % of subjects", "setting": "ABT-894 4 mg BID, N = 46", "value": "(0) %"}, {"measurement": "Feeling hot and cold, number of subjects", "setting": "ABT-894 4 mg BID, N = 46", "value": 0, "unit": "subjects"}, {"measurement": "Feeling jittery, % of subjects", "setting": "ABT-894 4 mg BID, N = 46", "value": "(0) %"}, {"measurement": "Feeling jittery, number of subjects", "setting": "ABT-894 4 mg BID, N = 46", "value": 0, "unit": "subjects"}, {"measurement": "Headache, % of subjects", "setting": "ABT-894 4 mg BID, N = 46", "value": "(8.7) %"}]}]}
